The text below walks through data of patent US12564622B2, “Preventing cytokine release syndrome” (priority 2017, dated 2026).

“And” between values parts separate entries of the source, which are not always exact repeats. Equal values may be shown once. “Also recorded” adds a separate entry of the source.

The test system of assay [1] is polymicrobial peritoneal sepsis induced by CLP. Put plainly: Cecal ligation and puncture (CLP) sepsis. It is filed as in vivo, mouse (C57BL/6). Conditions: ANP given after CLP.
In assay [2] the test system is LPS-injected BALB/c mice. In kind it is in vivo, mouse (BALB/c). Here is the method: LPS from Escherichia coli 0111:B4 was formulated as a 10 mg/ml solution in water and stored in −80° C. LPS was injected intraperitoneally at a dose of 3.5 mg/kg. […] Human ANP (Sigma) was dissolved in saline, loaded in mini-osmotic pumps (ALZET) with a release rate of 12 μg/day and implanted subcutaneously in the back of mice 12 hours before the LPS injection. Mice implanted with pumps loaded with saline served as controls. […] […] The control groups were injected with PBS. […] Hydration of mice was supported by daily subcutaneous injection of 0.5 ml saline.
LPS from Escherichia coli 0111:B4 was formulated as a 10 mg/ml solution in water and stored in −80° C. In Balb/C mice, LPS was injected intraperitoneally at a lethal dose of 3.5 mg/kg. […] In experiments with catecholamine pumps, a sublethal dose with 15-35% death rate was optimized in Balb/C mice. In TH+/+ and TH^ΔLysM mice with C57BL/6 background, a lethal dose was optimized at 5 mg/kg. Human ANP (Sigma) was dissolved in saline, loaded in mini-osmotic pumps (ALZET) with a release rate of 12 μg/day and implanted subcutaneously in the back of mice 12 hours before the LPS injection. Mice implanted with pumps loaded with saline served as controls. Metyrosine was freshly dissolved in PBS and injected IP at the indicated doses for three days prior to the LPS treatment. One hour before the LPS injection, metyrosine was injected into the lower abdomen contralateral to the side of LPS injection. The control groups were injected with PBS. For the following 3 days, metyrosine was injected IP at reduced indicated doses. Hydration of mice was supported by daily subcutaneous injection of 0.5 ml saline.

The test system of assay [3] is human U937-derived macrophage cells. Nature of the assay: U937 macrophage catecholamine and cytokine production. In kind it is cell-based. As to conditions: LPS 1 μg/ml and/or epinephrine 15 ng/ml, metyrosine 2 mM. Here is the method:
Human U937 cells were cultured in RPMI 1640 media with 5% FBS and antibiotics, and were differentiated to M1 macrophage-like cells by incubating with 20 nM phorbol 12-myristate 13-acetate (PMA, Sigma) for 24 hours and further culturing in RPMI 1640 media with 5% FBS and antibiotics for another 72 hours. The experiments with U937 were set up in the same way as described above with peritoneal macrophages. […] Cells were incubated for 24 hours with LPS at 1 μg/ml.

For assay [4], the system named is anti-CD3 antibody-induced CRS in BALB/c mice. Put plainly: Anti-CD3 treatment induced CRS. In kind it is in vivo, mouse (BALB/c). As to the method: (§1) Metyrosine was freshly dissolved in PBS and injected IP at 60 mg/kg/day for three days prior to injection of anti-CD3 antibodies. […] Thirty minutes before the IP injection of the anti-mouse CD3 antibody (BioXcell, 145-2C11), metyrosine was IP injected at 60 mg/kg into the contralateral side. A single additional dose of 30 mg/kg metyrosine was injected IP on the following day. Control groups were injected with PBS at the same times.
as §1, with “times. For experiments with conditional TH knockout mice, 4-6 week-old LysMcre: TH fl/fl (TH^ΔLysM) mice with C57BL/6 background were used and LysMcre: TH+/+ mice of the same age were used as control. In these experiments, 200 μg/mouse anti-mouse CD3 antibody was injected IP.” for “times.”

Assay [5] deals with co-culture of hCART19 and Raji cells. Put plainly: In vitro co-culture of Raji and hCART19 cells. Conditions: Raji with hCART19 (1:5), 24 hours; metyrosine 2 mM or ANP 5 μg/ml. It is filed as cell-based, human. An excerpt:
Human CD19scFv-CD28-4-1BB-CD3ζ CAR-T cells (PM-CAR1003) were purchased from Promab Biotechnologies and maintained less than 7 days in AIM-V medium (GIBCO) supplemented with 300 IU/ml of hIL2 (Peprotech), 5% FBS and antibiotics (Car-T medium).

The mark [6] stands for this setting: 24 hours after anti-CD3, metyrosine pre-treatment.

As for `CC[C@H](C)[C@@H]1NC(=O)[C@H](CCCNC(=N)N)NC(=O)[C@H](CC(=O)O)NC(=O)[C@H](CCSC)NC(=O)[C@H](CCCNC(=N)N)NC(=O)CNC(=O)CNC(=O)[C@H](Cc2ccccc2)NC(=O)[C@@H](NC(=O)[C@H](CO)NC(=O)[C@H](CO)NC(=O)[C@H](CCCNC(=N)N)NC(=O)[C@H](CCCNC(=N)N)NC(=O)[C@H](CC(C)C)NC(=O)[C@@H](N)CO)CSSC[C@@H](C(=O)N[C@@H](CC(N)=O)C(=O)N[C@@H](CO)C(=O)N[C@@H](Cc2ccccc2)C(=O)N[C@@H](CCCNC(=N)N)C(=O)N[C@@H](Cc2ccc(O)cc2)C(=O)O)NC(=O)CNC(=O)[C@H](CC(C)C)NC(=O)CNC(=O)[C@H](CO)NC(=O)[C@H](CCC(N)=O)NC(=O)[C@H](C)NC(=O)CNC1=O` [ANP, atrial natriuretic peptide], the “survival after CLP, treatment after rather than before CLP” value in assay [1] is “did not rescue the mice”.

Take `C[C@](N)(Cc1ccc(O)cc1)C(=O)O` [metyrosine, α-methyl-tyrosine]: in assay [2] (LPS, metyrosine pre-treatment), the levels of catecholamines entry is on record as “substantially reduced” and the “levels of inflammatory cytokines” value is recorded as “substantially reduced”. The mice surviving in assay [2] (lethal dose LPS IP, metyrosine pre-treatment) is ~70% and ~75%. In assay [2] (lethal dose LPS, metyrosine 20 mg/kg), the “efficacy at 20 mg/kg” value was “ineffective”. Also, the “dependence of efficacy on dose” value in assay [2] (lethal dose LPS, metyrosine 20, 30, 40 mg/kg) is on record as “dose-dependent”. In assay [3], the catecholamines and cytokines result is given as “Comparable results were obtained”. In assay [4] (setting [6]), the “IL-2 and IFN-γ” value was “not significantly affected”; the circulating catecholamines entry was “reduced to near normal levels; also recorded: significantly reduced”; the “pro-inflammatory cytokines (IL-6, TNF-α, KC, MIP-2, MIP-1α)” value was “major reductions”. Also, the “mice surviving (of mice pre-treated)” value in assay [4] (anti-CD3 125 μg/mouse, metyrosine pre-treatment) is listed as “eleven of the twelve; also recorded: twelve of the fifteen”. In assay [5], the catecholamine production result is given as “significantly decreased; also recorded: suppressed the catecholamine surge” and the cytokine production result is “significantly decreased; also recorded: blocked”.
